Experiments:
RalB-GDP [1] = target: T1, RalB-GDP (Homo sapiens, UniProt P11234, Q72L); assay: Surface Plasma Resonance (SPR) binding, Biacore 3000; settings: RalB immobilized on CM5 chip; PBS pH 7.4, 1 μM GDP, 2 mM MgCl2, 3% DMSO
T1 construct: made in house
T1 sequence (P11234 1-206 Q72L): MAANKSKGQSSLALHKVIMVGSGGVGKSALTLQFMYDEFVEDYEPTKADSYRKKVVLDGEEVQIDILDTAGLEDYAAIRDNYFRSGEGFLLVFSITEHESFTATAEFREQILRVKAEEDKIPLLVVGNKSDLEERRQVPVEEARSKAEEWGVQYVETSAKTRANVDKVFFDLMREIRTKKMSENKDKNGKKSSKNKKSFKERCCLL
Procedure: (§1) Consequently, the binding of BQU57 to RalB-GDP was then determined using Isothermal Titration Calorimetry (ITC). ITC experiments were carried out using the MicroCal iTC200 system. Both protein and drug were prepared in 50 mM sodium phosphate, pH 7.6, 100 mM NaCl, and 1 mM MgCl2. Final DMSO concentration was adjusted to 1%. RalB-GDP protein (500 μM) were loaded into the syringe and titrated into drug (25 μM) or buffer alone as control. All experiments were carried out at 25° C. […] SPR experiments were carried out using the Biacore 3000 system. Running buffer: PBS, pH 7.4, 1 μM GDP, 2 mM MgCl2, 3% DMSO. Regeneration buffer: PBS, pH 7.4, 1 μM GDP, 2 mM Mg Cl2. RalB protein was immobilized on CM5 chip; samples of compound BQU57 in running buffer were injected at 30 μL/min for 60 s contact time followed by 5 minute regeneration.

Ras = Ras activity pull-down in H2122 xenograft tumors; type: in vivo, human; settings: BQU57 treated H2122 tumors, 3 h post-dose
Excerpt: (§2) Activity assay kits for Ras (#BK008) and RhoA (#BK036) were obtained from Cytoskeleton (Denver, Colo.). We used an ELISA for Ral activity based on selective binding of active RalA-GTP to its effector protein RalBP1.
(§3) Finally, we evaluated Ral GTPase activity in vivo in the H2122 xenografts. Nude mice were inoculated with 5×10^6 cells H2122 cells s.c. at four sites per mice. Tumor size reached an average of 250 mm^3 in ten days, at which time mice were given a signal i.p. dose of RBC8 or BQU57 at various concentrations. Tumors were then collected 3 h after injection of RBC8 or BQU57. RalA and RalB activity in tumor samples were then measured using the RalBP1 pull-down assay kit (Millipore #14-415). Ras and RhoA activity in tumor samples were measured using the respective pull-down assay kits. All the activity assays used western blotting as the final readout. For quantification of the immunoblots, the bands on each blot were first normalized to their respective internal control (10 ng of recombinant Ral, Ras, or […] protein run in the last lane) the numbers were then compared across different blots, each of which represented one treatment condition. Mice bearing H2122 tumors (median size 250 mm^3) were given a single intraperitoneal dose of RBC8 (50 mg/kg) or BQU57 (10/20/50 mg/kg) and tumors collected 3 h post-dose.

RalB-GDP [2] = target: T1, RalB-GDP; assay: Isothermal Titration Calorimetry (ITC); type: binding; settings: 25° C.; 50 mM sodium phosphate pH 7.6; 1% DMSO
Procedure: as §1

RhoA = target: T2, RhoA (Homo sapiens, UniProt P61586); assay: RhoA activity pull-down in H2122 xenograft tumors; type: in vivo; settings: BQU57 treated H2122 tumors, 3 h post-dose
T2 construct: from tissue; host or cells: H2122 xenograft tumours from nude mice
Excerpt: as §2, §3

RalB-GDP [3] = target: T1, RalB-GDP; assay: Differential scanning fluorometry (DSF); type: binding; settings: 10 μM RalB-GDP, 1% DMSO
Procedure: Differential scanning fluorometry (DSF) was used to evaluate binding between compounds and RalB-GDP. The melting temperature was measured by monitoring the increase of SYPRO orange that binds to hydrophobic regions of the protein. DSF was performed by preparing a plate containing 10 μM RalB-GDP and 10 μM RalB-GPNPP, 4×SYPRO orange in 20 mM Tris PH 8.0, 200 mM NaCl, 2.5 mM MgCl2 and 1 mM DTT buffer. Test compound was added to each well ensuring that the final concentration of DMSO was 1% across all samples. The thermal melting curves were obtained on a Light cycler 480 (Roche). The melting temperature was obtained by normalizing the curves and obtaining the temperature at the midpoint of the transition curve.

T2 sequence (P61586 whole entry): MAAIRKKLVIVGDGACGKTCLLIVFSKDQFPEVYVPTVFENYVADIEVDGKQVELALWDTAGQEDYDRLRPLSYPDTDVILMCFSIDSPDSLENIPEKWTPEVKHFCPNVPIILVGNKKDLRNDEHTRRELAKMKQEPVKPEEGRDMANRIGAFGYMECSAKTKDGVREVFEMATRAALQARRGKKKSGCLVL

For `Cc1nn(C)c2c1C(c1ccc(C(F)(F)F)cc1)C(C#N)=C(N)O2` (centres unmarked) [BQU57, 6-amino-1,3-dimethyl-4-(4-(trifluoromethyl)phenyl)-1,4-dihydropyrano[2,3-c]pyrazole-5-carbonitrile], the Kd (RalB-GDP [1]) was 4.7 ± 1.5 µM, the “inhibition of Ras activity in tumors” value (Ras) was “no significant inhibition” and the Kd (RalB-GDP [2]) was 7.7 ± 0.6 µM. For the same compound, the “inhibition of RhoA activity in tumors” value (RhoA) was “no significant inhibition” and the “binding to RalB-GDP by DSF (melting temperature)” value (RalB-GDP [3]) was “dose-dependent binding”.

Reference: US11472812B2, “Anti-cancer compounds targeting Ral GTPases and methods of using the same” (The Regents of the University of Colorado, a body corporate, priority 2014, dated 2022)
